In paper PMC10823514, “Target Identification of a Class of Pyrazolone Protein Aggregation Inhibitor Therapeutics for Amyotrophic Lateral Sclerosis” (ACS Central Science, 2023):

Molecular target: T1, 14-3-3-E (Rattus norvegicus, UniProt P62260)
T1 construct: isothermal dose–response (ITDR) CETSA curve of 14-3-3-E at 63 °C (B) in PC12^G93A cell lysate; endogenous in cells; host or cells: PC12-SOD1^G93A YFP cell lysate (freeze/thaw)
T1 sequence (P62260 1-255): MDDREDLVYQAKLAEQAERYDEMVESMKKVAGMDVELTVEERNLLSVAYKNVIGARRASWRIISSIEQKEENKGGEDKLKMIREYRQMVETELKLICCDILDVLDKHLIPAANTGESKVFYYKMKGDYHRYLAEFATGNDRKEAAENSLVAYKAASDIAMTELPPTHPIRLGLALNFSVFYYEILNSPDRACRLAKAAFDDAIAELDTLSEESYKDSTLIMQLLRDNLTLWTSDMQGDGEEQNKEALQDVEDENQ
Test: Cellular thermal shift assay (CETSA) in PC12^G93A cell lysate
Type: binding
Conditions: n = 3
Method: Before the experiments were initiated, PC12-SOD1^G93A YFP cells were maintained in DMEM high-glucose media supplemented with 10% horse serum, 5% Tet-approved FBS, 1% Pen-strep, 1X L-glutamine, 200 μg/mL hygromycin, and 100 μg/mL G418. On the day preceding the experiments, the cells were plated onto two separate 10 cm dishes at a concentration of 10 × 10^6 cells per 10 mL of the supplemented media. They were then incubated overnight at 37 °C in a CO2 incubator (5% CO2) until they achieved 90–95% confluency.
The cell medium was subsequently removed, and the cells were rinsed with 1X PBS before being detached using 1 mL of 1X trypsin. To this, 5 mL of 1X PBS solution was added, and the cells were then resuspended, transferred to two separate 15 mL conical tubes, and centrifuged at 1100 rpm for 3 min. The supernatant was discarded, and the cells were resuspended in 1 mL of 1X PBS containing a […] (EDTA-free) (Sigma-Aldrich, 1:100 v/v). […]
SDS PAGE was conducted using a 15-well Novex Bis-Tris 4–12% prepacked gel and 1X MES-SDS gel running buffer (comprising 50 mM MES, 50 mM Tris, 1 mM EDTA, and 0.1% SDS) at a constant voltage of […] over a duration of 2 h. […] These raw immunoblot images were analyzed by using ImageJ software. Data (expressed as relative band intensity %) were normalized relative to the samples that were incubated at the lowest temperature. […]

Compound: O=c1cc(COc2cc(Cl)cc(Cl)c2)[nH][nH]1 [P2]
- CETSA melting curve: 14-3-3-E in the soluble fraction versus DMSO control (500 μM P2, cell lysate, difference between 60 and 64 °C, maximum at 63 °C): markedly reduced the presence of 14-3-3-E in the soluble fraction
- ITDR CETSA: relative band intensity of 14-3-3-E in the soluble fraction (63 °C, increasing concentrations, cell lysate): clear decrease in the relative band intensity of 14-3-3-E
